Earlier results as cited in patent US20040191926A1 (priority 2001, published 2004).
Numbering of substitutions follows the chain as printed. Where two headings read alike, the source gives them in different places. Where no end group is shown, it is not given here. [ ]: non-standard residue; d: D form. F2Pmp = N[C@@H](Cc1ccc(C(F)(F)P(=O)(O)O)cc1)C(=O)O

How the values were obtained:
PTP1B [1] = target: T1, PTP1B (Homo sapiens, UniProt P18031); details: as PTP1B substrate (ref. 31); cited from earlier work
T1 sequence (P18031 1-435): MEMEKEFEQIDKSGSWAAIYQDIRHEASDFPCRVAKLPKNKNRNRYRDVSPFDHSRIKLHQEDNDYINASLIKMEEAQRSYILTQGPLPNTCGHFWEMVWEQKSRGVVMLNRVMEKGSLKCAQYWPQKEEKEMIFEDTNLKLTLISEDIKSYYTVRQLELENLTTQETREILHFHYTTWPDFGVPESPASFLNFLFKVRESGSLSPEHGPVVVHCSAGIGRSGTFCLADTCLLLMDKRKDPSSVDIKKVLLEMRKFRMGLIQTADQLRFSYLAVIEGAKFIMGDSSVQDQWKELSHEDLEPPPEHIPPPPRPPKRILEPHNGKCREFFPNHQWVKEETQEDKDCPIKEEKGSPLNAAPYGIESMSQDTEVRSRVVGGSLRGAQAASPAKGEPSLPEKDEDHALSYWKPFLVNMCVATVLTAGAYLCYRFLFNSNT

PTP1B/C215S = target: T2, PTP1B/C215S (Homo sapiens, UniProt P18031, C215S); details: isothermal titration calorimetry, pH 7.0 and 25° C.; cited from earlier work
T2 sequence (P18031 1-435 C215S): T1 sequence (P18031 1-435) with C215S

PTP1B [2] = target: T1, PTP1B; details: isothermal titration calorimetry, ionic strength of 0.15 M (ref. 33); cited from earlier work
PTP1B [3] = target: T1, PTP1B; details: cited from earlier work

Compound: O=P(O)(O)Oc1ccc(Cc2ccc(OP(=O)(O)O)cc2)cc1
- Km (PTP1B [1]): 16 µM
- kcat (PTP1B [1]): 6.9 s⁻¹

Compound: Ac-DADEpYL-NH2 [pTyr-containing hexapeptide PTP1B substrate]
- Kd (PTP1B/C215S): 800 ± 100 nM

Compound: DADE[F2Pmp]L-NH2
- Kd (PTP1B [2]): 240 nM
- Ki (PTP1B [3]): 200 nM
- potency relative to the same peptide containing phosphonomethyl phenylalanine (Pmp) (PTP1B [3]): over 1000 times
- Ki (PTP1B [3]; enzyme inhibition, ionic strength of 0.15 M (ref. 33)): 250 nM
- IC50 (PTP1B [3]; low ionic strength: pH 6.3, 50 mM Bis-Tris, 2 mM EDTA, 5 mM DTT buffer (ref. 38)): 30 nM
- Ki (PTP1B [3]; low ionic strength: pH 7.3 in 50 mM Hepes, 5 mM DTT and 10 mg/mL BSA buffer (ref. 37)): 26 nM
